Laboratory results published in PubChem BioAssay AID2060513 (Molecular Pharmacology Branch, DTP, NCI, 2025).
pIC50: −log10 of the molar value.

Test system: 299254-011-R-J1-PDC complex spheroids viability
Assay: Anticancer human tumor 299254-011-R-J1-PDC patient-derived melanoma cell line growth inhibition [GQUAD]
Conditions: for pIC50: curve of first compound; for viability, T/C: stronger effect = lower value; active means viability on the fitted dose curve at most 10% of control; inactive means the rest
Text: DNA G-quadruplex Stabilizer Agents in Combinations in Complex Spheroids
A high-throughput screen of multi-cell type tumor spheroids was designed to identify active combinations of DNA G-quadruplex stabilizer agents and targeted small molecules. Complex spheroids include a stromal component modeled by human endothelial cells (HUVEC) and fibroblasts modeled by human mesenchymal stem cells (MSCs). The concentration ranges selected for each drug and investigational agent were based upon clinically achievable concentrations if the clinical Cmax of the agent was known.
Compounds. The drugs and investigational agents: pidnarulex (CX-5461; NSC782164), APTO-253 (NSC789042), BRACO-19 (NSC847499), peposertib (NSC802822), ceralasertib (NSC780249), elimusertib (NSC800525), camonsertib (NSC841442), AZD-1390 (NSC803789), olaparib (NSC753686), talazoparib (NSC767125), ART-558 (NSC835418), sotorasib (NSC818433), MRTX-1133 (NSC836407), SN-38 (NSC673596), topotecan (NSC609699), etoposide (NSC141540), doxorubicin (NSC123127), gemcitabine (NSC613327), 5-fluorouracil (NSC19893), paclitaxel (NSC125973), vemurafenib (NSC761431), panobinostat (NSC761190), R-306465 (JNJ-16241199; NSC773264), adavosertib (NSC754352), TP-3654 (NSC805149), carboplatin (NSC241240), KSQ-4279 (NSC840948), and staurosporine (NSC755774) were obtained from the National Cancer Institute (NCI) Developmental Therapeutics Program Chemical Repository (34). The FDA-approved anticancer drug set is available from the NCI Developmental Therapeutics Program. […] The stock solutions were prepared in dimethyl sulfoxide (DMSO, Sigma-Aldrich, St. Louis, MO, cat. D2650) at 800-fold the tested concentration and stored at -70 degrees C prior to their use. All drugs and investigational agents were tested over a range starting from a high concentration at or near the clinical Cmax and decreasing in half-log increments. If the clinical Cmax for an agent had not been determined, the highest concentration tested was 10 microM.
2.3 Cell Culture. All cells were maintained in an incubator at 37 degrees C and 5% CO2 with 95% humidity. The PDC lines were cultured according to standard operating procedures established by the NCI PDMR. All PDCs were thawed and cultured in Matrigel-coated flasks prepared with a working solution of 1X Ham's F-12 nutrient mix, without supplementation (Invitrogen, cat. 11765054), 100 U/mL penicillin-streptomycin (Invitrogen, cat. 15140122), and 2.5% Matrigel (Corning Inc., cat. 354248) for the first three passages. The 857933-349-R-J2-PDC line was cultured in 6C/Colon 1B media, which includes advanced DMEM/F-12 (Thermo Fisher Scientific, cat. 12634028), 10 mM HEPES (Thermo Fisher Scientific, cat. 15630080), 1X GlutaMAX supplement (Thermo Fisher Scientific, cat. 35050061), 0.1 mg/mL primocin (InvivoGen, cat. ant-pm-2), 10% defined fetal bovine serum, heat inactivated (HyClone Laboratories Inc., cat. SH30070.03HI), 50% L-WRN conditioned media (ATCC, cat. CRL-3276), 1.25 mM N-Acetyl-L-cysteine (Sigma-Aldrich, cat. A9165), 10 mM nicotinamide (Sigma-Aldrich, cat. N0636), 1X B-27 supplement (Thermo Fisher Scientific, cat. 17504044), 1X N-2 supplement (Thermo Fisher Scientific, cat. 17502048), 10 microM Y-27632 dihydrochloride (Tocris Bioscience, cat. 1254), and 50 ng/mL human EGF recombinant protein (Thermo Fisher Scientific, cat. PHG0311). The 485176-168-R4-J1-PDC line was cultured in Panc media, which includes all 6C/Colon 1B media components plus 100 ng/mL human FGF-10 (Thermo Fisher Scientific, cat. 100-26), 500 nM SB-431542 (Selleckchem, cat. S1067), and gastrin (Tocris, cat. 3006).
[…]

[1] = second compound 0.0316 µM, first compound 0.0316 µM
[2] = second compound 0.0316 µM, first compound 0.1 µM
[3] = second compound 0.0316 µM, first compound 0.316 µM
[4] = second compound 0.0316 µM, first compound 1 µM
[5] = second compound 0.0316 µM, first compound 3.16 µM
[6] = second compound 0.0316 µM, first compound 10 µM
[7] = second compound 0.1 µM, first compound 0.0316 µM
[8] = second compound 0.1 µM, first compound 0.1 µM
[9] = second compound 0.1 µM, first compound 0.316 µM
[10] = second compound 0.1 µM, first compound 1 µM
[11] = second compound 0.1 µM, first compound 3.16 µM
[12] = second compound 0.1 µM, first compound 10 µM
[13] = second compound 0.316 µM, first compound 0.0316 µM
[14] = second compound 0.316 µM, first compound 0.1 µM
[15] = second compound 0.316 µM, first compound 0.316 µM
[16] = second compound 0.316 µM, first compound 1 µM
[17] = second compound 0.316 µM, first compound 3.16 µM
[18] = second compound 0.316 µM, first compound 10 µM
[19] = second compound 1 µM, first compound 0.0316 µM
[20] = second compound 1 µM, first compound 0.1 µM
[21] = second compound 1 µM, first compound 0.316 µM
[22] = second compound 1 µM, first compound 1 µM
[23] = second compound 1 µM, first compound 3.16 µM
[24] = second compound 1 µM, first compound 10 µM
[25] = second compound 3.16 µM, first compound 0.0316 µM
[26] = second compound 3.16 µM, first compound 0.1 µM
[27] = second compound 3.16 µM, first compound 0.316 µM
[28] = second compound 3.16 µM, first compound 1 µM
[29] = second compound 3.16 µM, first compound 3.16 µM
[30] = second compound 3.16 µM, first compound 10 µM
[31] = second compound 10 µM, first compound 0.0316 µM
[32] = second compound 10 µM, first compound 0.1 µM
[33] = second compound 10 µM, first compound 0.316 µM
[34] = second compound 10 µM, first compound 1 µM
[35] = second compound 10 µM, first compound 3.16 µM
[36] = second compound 10 µM, first compound 10 µM
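Further: spheroids exposed to the agents for seven days before readout.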
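Wherever viability, T/C is given: percent viability relative to DMSO vehicle control wells = 100%.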

CC(C)n1c(=O)n(C)c2cnc3cc(F)c(-c4ccc(OCCCN5CCCCC5)nc4)cc3c21 + Cc1cnc(CNC(=O)c2c(=O)c3ccc(N4CCCN(C)CC4)nc3n3c2sc2ccccc23)cn1
5.13: pIC50 (second compound 0.1 µM)
active: viability, T/C [31] 0.37% | viability, T/C [32] 12.4% | viability, T/C [33] 12.2% | viability, T/C [34] 3.21% | viability, T/C [35] 0.36% | viability, T/C [36] 0.31%
5.62: pIC50 (second compound 0.316 µM)
5.87: pIC50 (second compound 3.16 µM)
5.39: pIC50 (second compound 1 µM)
< 5.00: pIC50 (second compound 0.0316 µM)
> 7.50: pIC50 (second compound 10 µM)
inactive: viability, T/C [1] 94.4% | viability, T/C [2] 79.1% | viability, T/C [3] 85.8% | viability, T/C [4] 73% | viability, T/C [5] 69.7% | viability, T/C [6] 51% | viability, T/C [7] 96.9% | viability, T/C [8] 96.4% | viability, T/C [9] 77.3% | viability, T/C [10] 87.8% | viability, T/C [11] 63.1% | viability, T/C [12] 44.4% | viability, T/C [13] 77.4% | viability, T/C [14] 87.2% | viability, T/C [15] 65.2% | viability, T/C [16] 55.7% | viability, T/C [17] 53% | viability, T/C [18] 39.5% | viability, T/C [19] 56.4% | viability, T/C [20] 56.6% | viability, T/C [21] 66.9% | viability, T/C [22] 54.7% | viability, T/C [23] 58.1% | viability, T/C [24] 22.4% | viability, T/C [25] 55.4% | viability, T/C [26] 78.3% | viability, T/C [27] 64% | viability, T/C [28] 53.5% | viability, T/C [29] 35.6% | viability, T/C [30] 13.6%

CC1COCCN1c1cc(-c2ccnn2C)c2ccnc(-c3ccn[nH]3)c2n1 (centres undefined) + Cc1cnc(CNC(=O)c2c(=O)c3ccc(N4CCCN(C)CC4)nc3n3c2sc2ccccc23)cn1
inactive: viability, T/C [1] 99.1% | viability, T/C [2] 48.2% | viability, T/C [3] 37.9% | viability, T/C [4] 17.6% | viability, T/C [5] 20% | viability, T/C [6] 13.2% | viability, T/C [7] 84.5% | viability, T/C [8] 55.3% | viability, T/C [9] 23.4% | viability, T/C [10] 14.4% | viability, T/C [11] 17.2% | viability, T/C [12] 12.9% | viability, T/C [13] 40.9% | viability, T/C [14] 32.9% | viability, T/C [15] 23.6% | viability, T/C [16] 17.5% | viability, T/C [17] 16.8% | viability, T/C [18] 12.6% | viability, T/C [19] 22% | viability, T/C [20] 22.2% | viability, T/C [21] 22.3% | viability, T/C [22] 18.8% | viability, T/C [23] 13% | viability, T/C [24] 15.2% | viability, T/C [25] 26.5% | viability, T/C [26] 26.2% | viability, T/C [27] 18% | viability, T/C [28] 13.4% | viability, T/C [29] 14.9% | viability, T/C [30] 16.7%
6.94: pIC50 (second compound 0.0316 µM)
> 7.50: pIC50 (second compound 0.316 µM) | pIC50 (second compound 1 µM) | pIC50 (second compound 3.16 µM) | pIC50 (second compound 10 µM)
active: viability, T/C [31] 0.18% | viability, T/C [32] 0.22% | viability, T/C [33] 2.32% | viability, T/C [34] 0.18% | viability, T/C [35] 0.23% | viability, T/C [36] 0.22%
6.92: pIC50 (second compound 0.1 µM)
